From patent publication US7989447B2, “1,5 and 3,6-substituted indole compounds having NOS inhibitory activity” (NeurAxon, Inc., priority 2006, dated 2011)
Where two headings read alike, the source gives them in different places.

Columns and labels:
[1] = biological target: human neuronal constitutive NOS (nNOS) (Homo sapiens, UniProt P29475); test: nNOS (Human) enzyme assay, radiometric conversion of [3H]L-arginine to [3H]L-citrulline; type: biochemical; conditions: for Ratio e/n: human eNOS / human nNOS
Experimental: To measure enzyme inhibition, a 15 μL solution of a test substance was added to the enzyme assay solution, followed by a pre-incubation time of 15 min at RT. […] The total volume of the reaction mixture was 150 μL in every well. The reactions were carried out at 37° C. for 45 min. The reaction was stopped by adding 20 μL of ice-cold buffer containing 100 mM HEPES, 3 mM EGTA, 3 mM EDTA, pH=5.5. [^3H]L-citrulline was separated by DOWEX (ion-exchange resin DOWEX 50 W X 8-400, SIGMA) and the DOWEX was removed by spinning at 12,000 g for 10 min in the centrifuge. […] All assays were performed at least in duplicate. Standard deviations were 10% or less.

[2] = biological target: human endothelial constitutive NOS (eNOS) (Homo sapiens, UniProt P29474); test: eNOS (Human) enzyme assay, radiometric conversion of [3H]L-arginine to [3H]L-citrulline; type: biochemical; conditions: recombinant human enzyme, 37° C., 45 min
Experimental: (§1) Recombinant human inducible NOS (iNOS), human endothelial constitutive NOS (eNOS) or human neuronal constitutive NOS(nNOS) were produced in Baculovirus-infected Sf9 cells (ALEXIS). In a radiometric method, NO synthase activity was determined by measuring the conversion of [^3H]L-arginine to [^3H]L-citrulline. To measure iNOS, 10 μL of enzyme was added to 100 μL of 100 mM HEPES, pH=7,4, containing 1 mM CaCl2, 1 mM EDTA, 1 mM dithiotheitol, 1 μM FMN, 1 μM FAD, 10 μM tetrahydrobiopterin, 120 μM NADPH, and 100 nM CaM. To measure eNOS or nNOS, 10 μL of enzyme was added to 100 μL of 40 mM HEPES, pH=7.4, containing 2.4 mM CaCl2, 1 mM MgCl2, 1 mg/mL BSA, 1 mM EDTA, 1 mM dithiothreitol, 1 μM FMN, 1 μM FAD, 10 μM tetrahydrobiopterin, 1 mM NADPH, and 1.2 μM CaM.
(§2) To measure enzyme inhibition, a 15 μL solution of a test substance was added to the enzyme assay solution, followed by a pre-incubation time of 15 min at RT. The reaction was initiated by addition of 20 μL L-arginine containing 0.25 μCi of [^3H]arginine/mL and 24 μM L-arginine. The total volume of the reaction mixture was 150 μL in every well. The reactions were carried out at 37° C. for 45 min. The reaction was stopped by adding 20 μL of ice-cold buffer containing 100 mM HEPES, 3 mM EGTA, 3 mM EDTA, pH=5.5. [^3H]L-citrulline was separated by DOWEX (ion-exchange resin DOWEX 50 W X 8-400, SIGMA) and the DOWEX was removed by spinning at 12,000 g for 10 min in the centrifuge. An 70 μL aliquot of the supernatant was added to 100 μL of scintillation fluid and the samples were counted in a liquid scintillation counter (1450 Microbeta Jet, Wallac). […] All assays were performed at least in duplicate.

[3] = biological target: human inducible NOS (iNOS) (Homo sapiens, UniProt P35228); test: iNOS (Human) enzyme assay, radiometric conversion of [3H]L-arginine to [3H]L-citrulline; type: biochemical; conditions: recombinant human enzyme, 37° C., 45 min
Experimental: as §1, §2

[4] = system: cardiogenic shock patients; conditions: randomized trial of 30 patients; reduced from 67%; cited from earlier work
migraine patients [5] = conditions: open pilot study; cited from earlier work
[6] = system: patients with persistent shock; conditions: up to 30 days, 11 patients with persistent shock; cited from earlier work
migraine patients [7] = conditions: single i.v. administration; cited from earlier work
[8] = system: rats after L5/L6 spinal nerve ligation; test: Chung Spinal Nerve Ligation (SNL) model of neuropathic pain, thermal hyperalgesia; type: in vivo, rat; conditions: one dose 10 or 60 mg/kg i.p.
Experimental: The efficacy of compound 107 for the treatment of neuropathic pain was assessed using standard animal models predictive of anti-hyperalgesic and anti-allodynic activity induced by a variety of methods.
The experimental designs for the Chung Spinal Nerve Ligation SNL Model assay for neuropathic pain are depicted in FIG. 1. Nerve ligation injury was performed according to the method described by Kim and Chung (Kim and Chung, Pain 50:355-363, 1992). This technique produces signs of neuropathic dysesthesias, including tactile allodynia, thermal hyperalgesia, and guarding of the affected paw. Rats were anesthetized with halothane and the vertebrae over the L4 to S2 region were exposed. The L5 and L6 spinal nerves were exposed, carefully isolated, and tightly ligated with 4-0 silk suture distal to the DRG. After ensuring homeostatic stability, the wounds were sutured, and the animals allowed to recover in individual cages. Sham-operated rats were prepared in an identical fashion except that the L5/L6 spinal nerves were not ligated. […] After a period of recovery following the surgical intervention, rats show enhanced sensitivity to painful and normally non-painful stimuli.

[9] = recombinant human enzyme, 37° C., 45 min, read-out: Human nNOS

Sequence of human neuronal constitutive NOS (nNOS) (P29475 whole entry): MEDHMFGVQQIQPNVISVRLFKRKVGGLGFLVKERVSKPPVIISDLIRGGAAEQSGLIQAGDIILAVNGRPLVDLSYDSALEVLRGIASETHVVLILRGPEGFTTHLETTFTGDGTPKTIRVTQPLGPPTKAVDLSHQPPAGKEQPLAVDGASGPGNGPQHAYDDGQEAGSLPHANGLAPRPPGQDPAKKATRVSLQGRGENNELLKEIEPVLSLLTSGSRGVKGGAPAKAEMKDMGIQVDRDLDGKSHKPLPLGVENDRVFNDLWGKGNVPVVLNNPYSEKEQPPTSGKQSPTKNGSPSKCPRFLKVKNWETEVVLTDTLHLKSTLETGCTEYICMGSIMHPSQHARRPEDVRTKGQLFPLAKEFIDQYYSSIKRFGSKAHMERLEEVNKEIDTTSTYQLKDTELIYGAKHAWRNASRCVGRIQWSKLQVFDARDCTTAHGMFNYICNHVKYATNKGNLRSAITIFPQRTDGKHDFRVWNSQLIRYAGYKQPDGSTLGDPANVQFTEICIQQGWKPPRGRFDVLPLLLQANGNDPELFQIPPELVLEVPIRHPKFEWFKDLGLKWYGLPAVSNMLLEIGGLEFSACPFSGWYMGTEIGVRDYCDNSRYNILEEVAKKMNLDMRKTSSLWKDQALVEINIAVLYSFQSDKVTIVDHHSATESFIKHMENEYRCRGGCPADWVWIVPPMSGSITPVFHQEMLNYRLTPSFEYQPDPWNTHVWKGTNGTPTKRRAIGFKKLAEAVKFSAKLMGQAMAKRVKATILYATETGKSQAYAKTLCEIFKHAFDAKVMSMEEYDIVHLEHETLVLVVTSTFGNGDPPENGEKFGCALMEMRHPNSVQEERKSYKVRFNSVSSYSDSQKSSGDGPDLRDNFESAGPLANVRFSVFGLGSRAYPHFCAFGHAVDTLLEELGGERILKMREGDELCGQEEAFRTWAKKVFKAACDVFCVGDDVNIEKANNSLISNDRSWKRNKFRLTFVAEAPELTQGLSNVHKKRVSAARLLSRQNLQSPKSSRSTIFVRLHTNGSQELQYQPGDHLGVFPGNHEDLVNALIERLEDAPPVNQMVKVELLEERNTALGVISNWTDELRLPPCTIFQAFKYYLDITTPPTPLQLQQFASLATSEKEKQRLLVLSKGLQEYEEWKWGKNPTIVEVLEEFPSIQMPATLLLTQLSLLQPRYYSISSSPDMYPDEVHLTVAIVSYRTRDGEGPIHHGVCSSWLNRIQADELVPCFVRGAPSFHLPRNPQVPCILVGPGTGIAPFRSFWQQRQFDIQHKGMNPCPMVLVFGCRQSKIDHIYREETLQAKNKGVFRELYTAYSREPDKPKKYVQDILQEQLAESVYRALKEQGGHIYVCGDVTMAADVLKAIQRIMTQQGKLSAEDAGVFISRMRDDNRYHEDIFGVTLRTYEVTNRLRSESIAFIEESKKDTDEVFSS

SMILES | Ratio e/n [1] | IC50 [1, 9] [µM] | IC50 ([2]; read-out: Human eNOS) [µM] | IC50 [3] [µM] | further results
CCNC1CC=C(c2c[nH]c3cc(NC(=N)c4cccs4)ccc23)CC1 (centres unmarked) [Compound 132, N-(3-(4-(Ethylamino)cyclohex-1-enyl)-1H-indol-6-yl)thiophene-2-carboximidamide] | 23.83 | 0.73 | 17.4 | 1.93 | 
CN1CCCC1CCn1c(Cc2ccc(OC(F)(F)F)cc2)cc2cc(NC(=N)c3cccs3)ccc21 (centres unmarked) [Compound 14, N-(1-(2-(1-methylpyrrolidin-2-yl)ethyl)-2-(4-(trifluoromethoxy)benzyl)-1H-indol-5-yl)thiophene-2-carboximidamide] | 4.90 | 0.31 | 1.52 | 93 | 
COC(=O)[C@@H](N)CCCNC(=N)N[N+](=O)[O-] [L-NAME] |  |  |  |  | patient mortality [4]: 27%
CCNC1CCC(c2c[nH]c3cc(NC(=N)c4cccs4)ccc23)CC1 (centres unmarked) [Compound 129] | 57.08 | 0.26 | 14.9 | 4.2 | 
CN1CCCC1CCn1ccc2cc(NC(=N)N[N+](=O)[O-])ccc21 (centres unmarked) [Compound 59, 1-(1-(2-(1-methylpyrrolidin-2-yl)ethyl)-1H-indol-5-yl)-3-nitroguanidine] | 6.00 | 1.44 | 8.65 |  | Human iNOS (μM) [3]: Not Active
CN1CCCC(n2ccc3cc(NC(=N)c4cccs4)ccc32)CC1 (centres unmarked) [Compound 58, N-(1-(1-methylazepan-4-yl)-1H-indol-5-yl)thiophene-2-carboximidamide] | 93.49 | 0.12 | 11.5 | 7.6 | 
CN1CCC(c2c[nH]c3cc(NC(=N)c4cccs4)ccc23)CC1 [Compound 108, N-[3-(1-methyl-piperidin-4-yl)-1H-indol-6-yl]-thiophene-2-carboxamidine] | 23.94 | 0.71 | 17 | 9.3 | 
CN1C2CCC1CC(n1ccc3cc(NC(=N)c4cccs4)ccc31)C2 (centres unmarked) [Compound 86, N-(1-(8-methyl-8-azabicyclo[3.2.1]octan-3-yl)-1H-indol-5-yl)thiophene-2-carboximidamide] | 24.70 | 0.76 | 18.9 | 11 | 
N=C(Nc1ccc2c(C3CN4CCC3CC4)c[nH]c2c1)c1cccs1 (centres unmarked) [Compound 112, N-(3-(quinuclidin-3-yl)-1H-indol-6-yl)thiophene-2-carboximidamide] | 27.78 |  | 31.4 | 0.4 | IC50 [1]: 1.13 µM
CCCN[C@H]1CC[C@@H](c2c[nH]c3cc(NC(=N)c4cccs4)ccc32)CC1 [Compound 137, N-(3-((1s,4s)-4-(propylamino)cyclohexyl)-1H-indol-6-yl)thiophene-2-carboximidamide] | 27.02 | 0.2 | 5.54 | 8.26 | 
CN1CCCC1CCn1c(-c2ccc([N+](=O)[O-])cc2)cc2cc(NC(=N)c3cccs3)ccc21 (centres unmarked) [Compound 21, N-(1-(2-(1-methylpyrrolidin-2-yl)ethyl)-2-(4-nitrophenyl)-1H-indol-5-yl)thiophene-2-carboximidamide] |  | 1.28 | 13.2 | 52 | 
C/C1=C2/[N-][C@H]([C@H](CC(N)=O)[C@@]2(C)CCC(=O)NC[C@@H](C)OP(=O)([O-])O[C@H]2[C@@H](O)[C@@H](n3cnc4cc(C)c(C)cc43)O[C@@H]2CO)[C@]2(C)N=C(/C(C)=C3N=C(/C=C4N=C1[C@@H](CCC(N)=O)C\4(C)C)[C@@H](CCC(N)=O)[C@]\3(C)CC(N)=O)[C@@H](CCC(N)=O)[C@]2(C)CC(N)=O.[Co+3].[OH-] [hydroxycobalamin] |  |  |  |  | patients with a 50% reduction in the frequency of migraine attack (migraine patients [5]): 53%
CN=C(N)NCCC[C@H](N)C(=O)O.Cl [L-NMMA, L-N^G methylarginine hydrochloride] |  |  |  |  | survival rate [6]: 72%; response rate (migraine patients [7]): 67%
CCN(CC)CCn1c(Cc2ccc(OC(F)(F)F)cc2)cc2cc(NC(=N)c3cccs3)ccc21 [Compound 11, N-(1-(2-(Diethylamino)ethyl)-2-(4-(trifluoromethoxy)benzyl)-1H-indol-5-yl)thiophene-2-carboximidamide] | 5.62 | 0.8 |  | 17 | IC50 ([2]; Human eNOS (μM)): 4.5 µM
CN1CCCC1CCn1ccc2cc(NC(=N)c3cccs3)ccc21 (single isomer, unassigned) [(−)−57] |  |  | 1.92 | 1.7 | 
CN1CCCC(n2ccc3cc(NC(=N)c4ccco4)ccc32)CC1 (single isomer, unassigned) [(−)−55] |  |  | 28.5 | 46 | 
CN1CC=C(c2c[nH]c3cc(NC(=N)c4cccs4)ccc23)CC1 [Compound 107, N-[3-(1-methyl-1,2,3,6-tetrahydro-pyridin-4-yl)-1H-indol-6-yl]-thiophene-2-carboxamidine] | 26.36 | 1.1 | 29 | 12 | antihyperalgesic effect (reversal of thermal hyperalgesia) [8]: clear antihyperalgesic effect
CN1CCCC(n2ccc3cc(NC(=N)c4ccco4)ccc32)CC1 (single isomer, unassigned) [(+)−55] |  |  | 24.5 | 10 | 
N=C(Nc1ccc2c(ccn2C2CN3CCC2CC3)c1)c1cccs1 (centres unmarked) [Compound 71, N-(1-(Quinuclidin-3-yl)-1H-indol-5-yl)thiophene-2-carboximidamide] | 32.79 | 0.36 | 12.1 | 29 | 
